Data taken from publication PMC3371734 (The Journal of Experimental Medicine, 2012).

Legend:
α3 GlyR [1] = biological target: T1, α3 GlyR (Rattus norvegicus, UniProt P24524); test: whole-cell patch clamp, potentiation of glycine current; type: cell-based; conditions: HEK 293 cells, allosteric potentiator, sustained application
T1 sequence (P24524 34-464): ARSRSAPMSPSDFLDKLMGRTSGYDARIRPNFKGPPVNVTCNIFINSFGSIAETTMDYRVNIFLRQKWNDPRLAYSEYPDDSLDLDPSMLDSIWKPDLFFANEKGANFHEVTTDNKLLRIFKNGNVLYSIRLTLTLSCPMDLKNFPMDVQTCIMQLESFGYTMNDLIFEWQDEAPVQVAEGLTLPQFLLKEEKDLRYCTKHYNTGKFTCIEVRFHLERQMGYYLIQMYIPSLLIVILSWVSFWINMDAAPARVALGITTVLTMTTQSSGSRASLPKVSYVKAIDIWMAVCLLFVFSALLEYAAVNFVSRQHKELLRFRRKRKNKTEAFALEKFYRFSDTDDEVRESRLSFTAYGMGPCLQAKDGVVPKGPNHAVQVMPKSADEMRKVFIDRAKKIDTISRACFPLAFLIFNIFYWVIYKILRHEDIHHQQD

α3 GlyR [2] = biological target: T1, α3 GlyR; test: whole-cell patch clamp, glycine currents; type: cell-based

SMILES | % potentiation at 1 μM (α3 GlyR [1]) [%] | EC50 (α3 GlyR [2]) [µM]
C=C(C)[C@@H]1CCC(C)=C[C@H]1c1c(O)cc(CCCCC)cc1O [CBD, cannabidiol] | 491 ± 101 | 
NCC(=O)O [glycine] |  | 377 ± 45
